Measurements reported in the supplement of paper PMC10307832.

Compound: COc1cc(Nc2ncc(F)c(Nc3ccc4c(n3)NC(=O)C(C)(C)O4)n2)cc(OC)c1OC [R406] + Cc1nc(NC(=O)N2CCC[C@H]2C(N)=O)sc1-c1ccnc(C(C)(C)C(F)(F)F)c1 [Alpelisib] (partner 2 µM)
Experiment: relative viability (nuclei count vs DMSO), 5 days (fraction); higher = more cells survive
Settings: first compound 0.08 µM
Outline: (§1)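 One day after seeding in 1536-well plates, lung cancer cell lines were dosed by pin tool. Dosing was either single-drug or a fixed anchor-drug dose plus five library-drug doses (not always all listed) in √10 steps. After 5 days, nuclei were stained in one fix-and-stain step and counted on 4× images, and relative viability is the nuclei count of treated wells over that of vehicle wells, given as the median of duplicate plates.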

Cell Line	relative viability
IA-LM	0.888
LOU-NH91	0.726
NCI-H1793	1.08
NCI-H2405	0.751
HOP-62	0.779
HCC-44	0.787
A549	0.703
SK-MES-1	0.749
LU99A	0.462
BEN	1.08
HARA	0.801
HCC-78	0.313
NCI-H322M	0.811
LCLC-97TM1	0.209
NCI-H1299	1
NCI-H1563	0.938
ABC-1	1.3

Same assay, conditions: first compound 0.253 µM

Cell Line	relative viability
NCI-H838	1.11
EBC-1	0.969
NCI-H1703	0.281
NCI-H1993	0.741
NCI-H441	0.843
PC-14	1.01
LCLC-103H	1.1
NCI-H596	0.53
NCI-H2126	0.851
EMC-BAC-2	0.786
NCI-H2085	1.02
Calu-6	1.14
HCC-366	0.439
NCI-H1666	0.953
NCI-H647	1.03
LK-2	1.05
NCI-H2087	1.06
NCI-H358	0.908
NCI-H2170	0.773
H3255	0.746

Cell Line	relative viability
COR-L23	0.947
COR-L 105	1.01
IA-LM	0.999
LOU-NH91	0.718
NCI-H1793	0.691
NCI-H2405	0.756
HOP-62	1.04
HCC-44	1
A549	0.932
SK-MES-1	0.964
LU99A	0.468
BEN	1.3
HARA	0.721
HCC-78	0.33
NCI-H322M	0.807
LCLC-97TM1	0.265
NCI-H1299	1.02
NCI-H1563	0.996
ABC-1	0.963

Same assay, conditions: first compound 0.8 µM

Cell Line	relative viability
NCI-H838	1.16
EBC-1	1.03
NCI-H1703	0.368
NCI-H1993	0.772
NCI-H441	0.878
PC-14	1.01
LCLC-103H	0.901
NCI-H596	0.621
NCI-H2126	0.75
EMC-BAC-2	0.801
NCI-H2085	1.05
Calu-6	1.13
HCC-366	0.441
NCI-H1666	1.02
NCI-H647	1.52
LK-2	1.02
NCI-H2087	1.11
NCI-H358	1
NCI-H2170	0.904
H3255	0.623

Cell Line	relative viability
COR-L23	0.828
COR-L 105	1.4
IA-LM	1
LOU-NH91	0.789
NCI-H1793	0.921
NCI-H2405	0.795
HOP-62	0.886
HCC-44	0.883
A549	0.811
SK-MES-1	0.957
LU99A	0.617
BEN	1.07
HARA	0.879
HCC-78	0.377
NCI-H322M	0.774
LCLC-97TM1	0.267
NCI-H1299	1.11
NCI-H1563	0.924
ABC-1	1.29

Same assay, conditions: first compound 2.53 µM

Cell Line	relative viability
NCI-H838	0.547
EBC-1	0.606
NCI-H1703	0.183
NCI-H1993	0.653
PC-14	0.664
LCLC-103H	0.901
NCI-H596	0.387
NCI-H2126	0.723
EMC-BAC-2	0.628
NCI-H2085	0.829
Calu-6	0.66
NCI-H1666	0.786
NCI-H647	0.461
LK-2	0.803
NCI-H2087	1.09
NCI-H358	0.373
NCI-H2170	0.576
H3255	0.511

Cell Line	relative viability
COR-L23	0.553
COR-L 105	0.757
IA-LM	0.962
LOU-NH91	0.51
NCI-H1793	0.434
NCI-H2405	0.466
HOP-62	1.09
HCC-44	0.739
A549	0.646
SK-MES-1	0.414
BEN	0.99
HARA	0.637
HCC-78	0.295
NCI-H322M	0.375
LCLC-97TM1	0.202
NCI-H1299	1.12
NCI-H1563	0.682
ABC-1	0.821

Same assay, conditions: first compound 8 µM

Cell Line	relative viability
NCI-H838	0.541
EBC-1	0.386
NCI-H1703	0.173
NCI-H1993	0.599
NCI-H441	0.296
PC-14	0.636
LCLC-103H	0.741
NCI-H596	0.183
NCI-H2126	0.625
EMC-BAC-2	0.384
NCI-H2085	0.612
Calu-6	0.389
HCC-366	0.0784
NCI-H1666	0.385
NCI-H647	0.12
LK-2	0.566
NCI-H2087	0.757
NCI-H358	0.234
NCI-H2170	0.714
H3255	0.418

Cell Line	relative viability
COR-L23	0.388
COR-L 105	0.641
IA-LM	0.81
LOU-NH91	0.449
NCI-H1793	0.32
NCI-H2405	0.205
HOP-62	0.913
HCC-44	0.262
A549	0.164
SK-MES-1	0.406
LU99A	0.193
BEN	0.766
HARA	0.249
HCC-78	0.214
NCI-H322M	0.457
LCLC-97TM1	0.256
NCI-H1299	1.09
NCI-H1563	0.634
ABC-1	0.518

Compound: O=C(/C=C/c1cccnc1)NCCCCC1CCN(C(=O)c2ccccc2)CC1 [Daporinad] + CCNC(=O)c1noc(-c2cc(C(C)C)c(O)cc2O)c1-c1ccc(CN2CCOCC2)cc1 [Luminespib] (partner 0.01 µM)
Experiment: as above
Settings: first compound 0.0005 µM
Outline: as §1

Cell Line	relative viability
NCI-H522	1.28
NCI-H2342	0.668
NCI-H838	0.288
NCI-H1650	0.187
NCI-H1993	0.795
NCI-H441	0.36
LCLC-103H	0.988
NCI-H596	0.919
NCI-H2126	0.883
EMC-BAC-2	1.19
NCI-H2085	0.386
NCI-H1666	1.01
NCI-H647	0.183
LK-2	0.181
NCI-H2087	0.178
NCI-H358	0.27
NCI-H2170	0.817
H3255	0.832

Cell Line	relative viability
COR-L23	0.615
COR-L 105	0.807
LOU-NH91	0.331
ChaGo-K-1	0.529
NCI-H1793	0.163
NCI-H2405	0.853
HOP-62	0.898
HCC-44	1.07
SK-MES-1	0.796
LU99A	0.229
BEN	0.356
HARA	0.761
SW 900	0.19
NCI-H322M	0.997
LCLC-97TM1	0.714
NCI-H1623	0.618
NCI-H1563	0.535
ABC-1	0.524

Same assay, conditions: first compound 0.001581 µM

Cell Line	relative viability
NCI-H522	1.13
NCI-H2342	0.786
NCI-H838	0.332
NCI-H1650	0.182
NCI-H1993	0.797
NCI-H441	0.324
PC-14	0.106
LCLC-103H	0.937
NCI-H596	1.04
NCI-H2126	0.897
EMC-BAC-2	1.22
NCI-H2085	0.434
NCI-H1666	0.985
NCI-H647	0.173
LK-2	0.213
NCI-H2087	0.177
NCI-H358	0.305
NCI-H2170	0.722
H3255	0.995

Cell Line	relative viability
COR-L23	0.696
COR-L 105	0.805
LOU-NH91	0.364
ChaGo-K-1	0.508
NCI-H1793	0.203
NCI-H2405	0.884
HOP-62	0.963
HCC-44	1.12
SK-MES-1	0.839
LU99A	0.227
BEN	0.559
HARA	0.621
SW 900	0.159
NCI-H322M	0.97
LCLC-97TM1	0.86
NCI-H1623	0.497
NCI-H1563	0.582
ABC-1	0.583

Same assay, conditions: first compound 0.005 µM

Cell Line	relative viability
NCI-H522	0.971
NCI-H2342	0.707
NCI-H838	0.343
NCI-H1650	0.182
NCI-H1993	0.787
NCI-H441	0.367
PC-14	0.196
LCLC-103H	1.03
NCI-H596	1.05
NCI-H2126	0.921
EMC-BAC-2	1.25
NCI-H2085	0.549
NCI-H1666	1.07
NCI-H647	0.239
LK-2	0.176
NCI-H2087	0.154
NCI-H358	0.599
NCI-H2170	0.417
H3255	0.929

Cell Line	relative viability
COR-L23	0.734
COR-L 105	0.82
LOU-NH91	0.291
ChaGo-K-1	0.425
NCI-H1793	0.158
NCI-H2405	1.01
HOP-62	1.03
HCC-44	0.942
SK-MES-1	0.874
LU99A	0.286
BEN	0.456
HARA	0.837
SW 900	0.181
NCI-H322M	0.853
LCLC-97TM1	0.768
NCI-H1623	0.472
NCI-H1563	0.493
ABC-1	0.527

Same assay, conditions: first compound 0.01581 µM

Cell Line	relative viability
NCI-H522	0.846
NCI-H2342	0.631
NCI-H838	0.29
NCI-H1650	0.196
NCI-H1993	0.891
NCI-H441	0.343
PC-14	0.196
LCLC-103H	1.06
NCI-H596	0.479
NCI-H2126	0.924
EMC-BAC-2	0.331
NCI-H2085	0.503
NCI-H1666	1.03
NCI-H647	0.182
LK-2	0.147
NCI-H2087	0.159
NCI-H358	0.359
NCI-H2170	0.734
H3255	1.1

Cell Line	relative viability
COR-L23	0.199
COR-L 105	0.738
LOU-NH91	0.382
ChaGo-K-1	0.414
NCI-H1793	0.217
NCI-H2405	0.723
HOP-62	0.688
HCC-44	1.28
SK-MES-1	0.819
LU99A	0.223
BEN	0.437
HARA	0.175
SW 900	0.17
NCI-H322M	0.608
LCLC-97TM1	0.774
NCI-H1623	0.555
NCI-H1563	0.485
ABC-1	0.498
